Assay results reported in patent publication US9776962B2, “Aromatic compounds with GPR40 agonistic activity” (TAKEDA PHARMACEUTICAL COMPANY LIMITED, priority 2013, dated 2017).
Marks after values point to notes of the source that are not given here.

Experiments:
[1] = target: T1, human GPR40 (Homo sapiens, UniProt O14842); assay: Evaluation of human GPR40 agonist activity with increase in intracellular Ca2+ concentration as an index (FLIPR); assay type: cell-based; conditions: test compound 1 μM; CHO(dhfr−) cells stably expressing human GPR40; 100% = 10 μM compound of Example 153, 0% = DMSO
T1 construct: expressed in transfected cells
Procedure, shortened: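 CHO(dhfr−) cells stably expressing full-length human GPR40 were loaded with Ca2+ probe for 1 h at room temperature, then given test compound at 1 μM final. Fluorescence was followed on FLIPR, with activity scaled to a reference agonist at 10 μM (100%) and DMSO (0%).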

[2] = test system: N-STZ-1.5 rats; assay: Oral glucose tolerance test using N-STZ-1.5 rats (glucose-lowering effects and insulinotropic action); assay type: in vivo, rat; conditions: 3 mg/kg body weight oral, 1 hr before glucose loading 1.5 g/kg, male N-STZ-1.5 rats, n=6; for blood glucose decrease rate (%): glucose AUC (0-60 min) vs control group; for insulin increase rate (fold): insulin AUC (0-60 min) test group/control group
Experimental: The glucose-lowering effects and insulinotropic action of the compound of the present invention were evaluated by an oral glucose tolerance test using N-STZ-1.5 rats.
Streptozotocin (120 mg/kg) was subcutaneously administered to 1 or 2 days-old male Wistar Kyoto rats to prepare type 2 diabetic model N-STZ-1.5 rats. The rats were allowed free access to standard laboratory chow diet (CE-2, CLEA Japan, Inc.).
Male N-STZ-1.5 rats (25-week-old) were fasted for 15-17 hr, and the body weight was measured. Heparin (Ajinomoto Co., Inc.) as an anticoagulant and aprotinin (SIGMA) as a protease inhibitor were added, blood samples were collected from tail vein. The blood was centrifuged, the concentrations of glucose and triglyceride in plasma were measured, and the rats were divided into each group (n=6) based on these parameters. A 0.5% methylcellulose (control group) or a 0.5% methylcellulose suspension containing a test compound (3 mg/kg body weight) was orally administered to the rats at 5 ml/kg and, 1 hr after the administration, glucose solution (Otsuka Pharmaceutical Co., Ltd.) was orally administered at 1.5 g/7.5 ml/kg. Immediately before (0 min value) and 10, 30 and 60 min after the glucose loading, blood was drawn from the tail vein, centrifuged, and the concentrations of glucose and insulin in plasma were measured. The glucose and triglyceride concentrations were measured by automatic analysis apparatus 7180 (Hitachi, Ltd.), and the insulin concentration was measured by rat insulin radioimmunoassay kit (MIllipore). The area under glucose curve (AUC) and insulin AUC were calculated using the following formulas, and the blood glucose decrease rate (%) and insulin increase rate (fold) were calculated by the following formulas from the obtained AUCs. A statistical significant difference from the control group was analyzed by the Dunnett's test or Steel's test.
Glucose AUC (0-60 Min): {(0 min glucose in plasma)+(10 min glucose in plasma)}×10/2+{(10 min glucose in plasma)+(30 min glucose in plasma)}×20/2+{(30 min glucose in plasma)+(60 min glucose in plasma)}×30/2 insulin AUC (0-60 Min): {(0 min insulin in plasma)+(10 min insulin in plasma)}×10/2+{(10 min insulin in plasma)+(30 min insulin in plasma)}×20/2+{(30 min insulin in plasma)+(60 min insulin in plasma)}×30/2 Blood Glucose Decrease Rate (%): [(test compound administration group glucose AUC/control group glucose AUC)−1]×100 insulin Increase Rate (Fold):
test compound administration group insulin AUC/control group insulin AUC

T1 sequence (O14842 whole entry): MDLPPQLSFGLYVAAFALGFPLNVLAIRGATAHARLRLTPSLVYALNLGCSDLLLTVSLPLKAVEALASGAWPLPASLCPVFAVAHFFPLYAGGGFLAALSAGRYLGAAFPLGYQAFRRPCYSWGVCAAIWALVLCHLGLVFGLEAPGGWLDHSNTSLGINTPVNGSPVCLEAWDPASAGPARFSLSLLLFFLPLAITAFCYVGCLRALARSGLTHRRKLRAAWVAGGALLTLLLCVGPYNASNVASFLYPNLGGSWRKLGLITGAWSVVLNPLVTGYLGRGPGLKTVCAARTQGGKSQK

COc1ccc(C(=O)N(CC(C)(C)C)c2cccc(C)n2)c(N2CCC(COc3cc([C@@H](CC(=O)O)C4CC4)ccn3)CC2)c1 [Example 245, (3S)-3-cyclopropyl-3-(2-((1-(2-((2,2-dimethylpropyl)(6-methylpyridin-2-yl)carbamoyl)-5-methoxyphenyl)piperidin-4-yl)methoxy)pyridin-4-yl)propanoic acid]
Activity (human GPR40 agonist activity) [1]: 102% | blood glucose decrease rate (%) [2]: 44.5^$ % | insulin increase rate (fold) [2]: 2.1** fold

COc1ccc(C(=O)N(CC(C)(C)C)c2nc(C)cc(C)n2)c(N2CCC(COc3cc([C@@H](CC(=O)O)C4CC4)ccn3)CC2)c1 [Example 246, (3S)-3-cyclopropyl-3-(2-((1-(2-((2,2-dimethylpropyl)(4,6-dimethylpyrimidin-2-yl)carbamoyl)-5-methoxyphenyl)piperidin-4-yl)methoxy)pyridin-4-yl)propanoic acid]
activation at 1 µM [1]: 103% | blood glucose decrease rate (%) [2]: 42.7^$ % | insulin increase rate (fold) [2]: 2.1** fold
